According to US20250009819A1, “NOVEL PROBIOTICS AND USE THEREOF” (PBLBIOLAB CO., LTD., priority 2021, published 2025):

Legend:
TNF-α = TNF-α expression in LPS-treated macrophages (ELISA); type: cell-based, C57BL/6 mice; conditions: macrophages treated with lactic acid bacteria and LPS for 24 hours
Outline: (§1)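 Peritoneal macrophages were elicited in male C57BL/6 mice (6 weeks) by i.p. 4% thioglycolate and harvested 96 h later. Cells at 0.5×10^6/well were treated with lactic acid bacteria plus LPS for 24 h. Cytokines in the supernatant were quantified by ELISA.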

IL-10 = IL-10 expression in LPS-treated macrophages (ELISA); type: cell-based, C57BL/6 mice; conditions: macrophages treated with lactic acid bacteria and LPS for 24 hours
Outline: as §1

BDNF = BDNF expression in SH-SY5Y cells; type: cell-based; conditions: LPS 200 ng/ml; lactic acid bacteria 1×10^4 CFU/ml; 24 h
Method: SH-SY5Y cells obtained from the Korean Cell Line Bank were cultured in DMEM medium supplemented with 10% FBS and 1% antibiotics, and dispensed at 2×10^6 cells per well in a 12-well plate. Then, LPS (200 ng/ml) was added to each well along with lactic acid bacteria (1×10^4 CFU/ml) and incubated for 24 h. The cells and supernatants were collected, sonicated and centrifuged, and the amount of BDNF in the supernatant was measured by ELISA kit.

[1] = system: animals with intestinal and brain diseases induced by TNBS; experiment: Animals with intestinal and brain diseases induced by TNBS: cognitive improvement, hippocampus; type: in vivo, C57BL/6 male mice; conditions: for Cognitive function Exploration (%) / Cognitive function Spont. alteration (%) / Concentration in the hippocampus IFN-γ / Concentration in the hippocampus IL-10 / Concentration in the hippocampus TNF-α: TNBS-treated mice, 1×10^9 CFU/mouse or sulfasalazine 50 mg/kg orally once a day for 5 days; for cognitive impairment caused by TNBS: result in words, summary of Table 18
Method: Indicators of this supernatant were measured using an ELISA kit (Ebioscience). […] The animal's movements were recorded, and reported as arm entries when the animal entered the arm with its hind paw, and the animal's movement was represented by an alternation, which was defined as one alternation when the animal passed through the three arms in succession. The amount of spontaneous alternation behavior was expressed as a percentage between the actual number of alternations and the maximum possible number of alternations (i.e., the total number of […] minus 2). The experiment was conducted in a box (40×40×40 cm) made so that the outside could not be seen from the inside. Two objects (A, A′) of the same shape and size were fixedly disposed in a box and the mouse was relocated to start from the center of the box. Then, the number of times the mouse made contact with the two objects was recorded for 10 minutes. After 24 hours, one of the two objects was replaced with a new object (A, B). Then, one original object and one new object were prepared, and the animal's exploration time was measured. C57BL/6 male mice (5 weeks old, 19-21 g) were divided (6 mice in each group) and acclimatized to the laboratory for 1 week. […] Meanwhile, the normal group was orally administered with 0.1 ml of physiological saline. From the next day, the mice were orally administered once a day for 5 days with lactic acid bacteria as a test sample suspended in physiological saline solution at a concentration of 1×10^9 CFU per mouse (NK210 alone (LR): 1×10^9 CFU/mouse, NK219 alone (BL): 1×10^9 CFU/mouse, NK209 alone (LL): 1×10^9 CFU/mouse, combined (MX, 210+219): NK210, 8×10^8 CFU/mouse and NK219, 2×10^8 CFU/mouse, combined (MX, 209+219) NK209, 8×10^8 CFU/mouse and NK219, 2×10^8 CFU/mouse, LR+BL+LL: NK210, 4×10^8 CFU/mouse, NK219, 2×10^8 CFU/mouse, and NK209, 4×10^8 CFU/mouse, heat treated (H—), respectively: 1×10^9 CFU/mouse). […] The day following the conclusion of sample administration, the experimental animals were sacrificed, and samples from the brain hippocampus, colon, and spleen were collected. In the Hippocampus, inflammatory indicators, such as TNF-α and IL-10, were measured using ELISA. In the colon, intestinal length and inflammatory indicators, such as TNF-α and IL-10, were measured. In the spleen, Th1 cells and Treg cells were measured by FACS (Fluorescence-Activated Cell Sorting).

[2] = system: animals with intestinal and brain diseases induced by TNBS; experiment: Animals with intestinal and brain diseases induced by TNBS: improvement effect in colon; type: in vivo, C57BL/6 male mice; conditions: TNBS-treated mice, 1×10^9 CFU/mouse or sulfasalazine 50 mg/kg orally once a day for 5 days
Method: Then, the supernatant was obtained by centrifugation for 10 minutes at 4° C. and 10,000 g. A volume of 50 μl of the supernatant was added to 0.95 mk of reaction solution (containing 1.6 mM tetramethyl benzidine and 0.1 mM H2O2), reacted at 37° C., and absorbance was monitored over time at 650 nm. […] Indicators of this supernatant were measured using an ELISA kit (Ebioscience). C57BL/6 male mice (5 weeks old, 19-21 g) were divided (6 mice in each group) and acclimatized to the laboratory for 1 week. […] Meanwhile, the normal group was orally administered with 0.1 ml of physiological saline. From the next day, the mice were orally administered once a day for 5 days with lactic acid bacteria as a test sample suspended in physiological saline solution at a concentration of 1×10^9 CFU per mouse (NK210 alone (LR): 1×10^9 CFU/mouse, NK219 alone (BL): 1×10^9 CFU/mouse, NK209 alone (LL): 1×10^9 CFU/mouse, combined (MX, 210+219): NK210, 8×10^8 CFU/mouse and NK219, 2×10^8 CFU/mouse, combined (MX, 209+219) NK209, 8×10^8 CFU/mouse and NK219, 2×10^8 CFU/mouse, LR+BL+LL: NK210, 4×10^8 CFU/mouse, NK219, 2×10^8 CFU/mouse, and NK209, 4×10^8 CFU/mouse, heat treated (H—), respectively: 1×10^9 CFU/mouse). […] The day following the conclusion of sample administration, the experimental animals were sacrificed, and samples from the brain hippocampus, colon, and spleen were collected. In the Hippocampus, inflammatory indicators, such as TNF-α and IL-10, were measured using ELISA. In the colon, intestinal length and inflammatory indicators, such as TNF-α and IL-10, were measured. In the spleen, Th1 cells and Treg cells were measured by FACS (Fluorescence-Activated Cell Sorting).

Row | Substance | Macrophage Inhibition of TNF-α expression (TNF-α) | Macrophage Induction of IL-10 expression (IL-10) | SHSY5Y cell Induction of BDNF expression (BDNF) | Cognitive function Exploration (%) [1] [%] | Cognitive function Spont. alteration (%) [1] [%] | Concentration in the hippocampus IFN-γ [1] [pg/mg] | Concentration in the hippocampus IL-10 [1] [pg/mg] | Concentration in the hippocampus TNF-α [1] [pg/mg] | cognitive impairment caused by TNBS [1] | Colon IFN-γ [2] [pg/mg] | Colon IL-10 [2] [pg/mg] | Colon MPO [2] [μUnit/mg] | Colon TNF-α [2] [pg/mg] | Colon length (cm) [2] [cm]
1 | Bifidobacterium longum NK219 | +++ (very strongly (+++; >90%)) | +++ (very strongly (+++; >90%)) | +++ (very strongly (+++; >90%)) | 75.37 | 65.32 | 25.02 | 40.26 | 11.93 | improved | 7.79 | 17.20 | 16.24 | 20.57 | 4.82
2 | Lactobacillus rhamnosus NK210 | ++ (strongly (++; >60-90%)) | +++ (very strongly (+++; >90%)) | ++ (strongly (++; >60-90%)) | 74.25 | 62.45 | 26.28 | 38.64 | 12.14 | improved | 8.42 | 15.31 | 18.43 | 23.84 | 4.63
3 | Lactococcus lactis NK209 | + (weakly (+; >20-60%)) | + (weakly (+; >20-60%)) | + (weakly (+; >20-60%)) | 70.20 | 58.8 | 30.81 | 35.53 | 13.54 | – | 7.89 | 17.10 | 15.65 | 20.12 | 4.89
